System: 327498-153-R-J2-PDC complex spheroid growth, % test/control
Test: Anticancer human tumor 327498-153-R-J2-PDC patient-derived uterine carcinosarcoma cell line growth inhibition [Asc]
Details: for IC50: curve of first compound; for viability, T/C: stronger effect = lower value; active means viability on the fitted dose curve at most 10% of control; inactive means the rest
How it was run: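 Complex spheroids combining tumor cells with HUVEC endothelial cells and human MSCs, at 37 degrees C, 5% CO2; agents tested alone or combined, half-log dilutions from at or near clinical Cmax, or 10 microM if Cmax unknown.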
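Further: spheroids exposed to compound for 7 days after 3 days of growth.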
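Wherever viability, T/C is given: 100% = DMSO vehicle control wells.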

CNC(C)C(=O)NC1CN(S(=O)(=O)c2cccc(S(=O)(=O)N3CCC4CCC(C(=O)NC(c5ccccc5)c5ccccc5)N4C(=O)C(NC(=O)C(C)NC)C3)c2)CCC2CCC(C(=O)NC(c3ccccc3)c3ccccc3)N2C1=O (stereo not given) + Cc1c(S(C)(=O)=O)c(-c2cc(F)cc(N3CCN(c4ccc(NS(=O)(=O)c5ccc(NC(CCN6CCC(C(=O)OCCCP(=O)(O)O)CC6)CSc6ccccc6)c(S(=O)(=O)C(F)(F)F)c5)cc4)CC3)c2)c(-c2ccc(Cl)cc2)n1C(C)C
> 1000 nM: IC50 (second compound 0.1 µM) | IC50 (second compound 0.316 µM) | IC50 (second compound 1 µM) | IC50 (second compound 3.16 µM) | IC50 (second compound 10 µM)
inactive: viability, T/C (second compound 0.1 µM, first compound 0.00316 µM) 94.1% | viability, T/C (second compound 0.1 µM, first compound 0.01 µM) 91.2% | viability, T/C (second compound 0.1 µM, first compound 0.0316 µM) 98% | viability, T/C (second compound 0.1 µM, first compound 0.1 µM) 92.3% | viability, T/C (second compound 0.1 µM, first compound 0.316 µM) 93.8% | viability, T/C (second compound 0.1 µM, first compound 1 µM) 82.4% | viability, T/C (second compound 0.316 µM, first compound 0.00316 µM) 93.1% | viability, T/C (second compound 0.316 µM, first compound 0.01 µM) 93.3% | viability, T/C (second compound 0.316 µM, first compound 0.0316 µM) 96.6% | viability, T/C (second compound 0.316 µM, first compound 0.1 µM) 87.2% | viability, T/C (second compound 0.316 µM, first compound 0.316 µM) 87.7% | viability, T/C (second compound 0.316 µM, first compound 1 µM) 83.9% | viability, T/C (second compound 1 µM, first compound 0.00316 µM) 100% | viability, T/C (second compound 1 µM, first compound 0.01 µM) 90.6% | viability, T/C (second compound 1 µM, first compound 0.0316 µM) 97% | viability, T/C (second compound 1 µM, first compound 0.1 µM) 80.3% | viability, T/C (second compound 1 µM, first compound 0.316 µM) 82.1% | viability, T/C (second compound 1 µM, first compound 1 µM) 92.2% | viability, T/C (second compound 3.16 µM, first compound 0.00316 µM) 84.4% | viability, T/C (second compound 3.16 µM, first compound 0.01 µM) 90.8% | viability, T/C (second compound 3.16 µM, first compound 0.0316 µM) 88.4% | viability, T/C (second compound 3.16 µM, first compound 0.1 µM) 86% | viability, T/C (second compound 3.16 µM, first compound 0.316 µM) 89.8% | viability, T/C (second compound 3.16 µM, first compound 1 µM) 85% | viability, T/C (second compound 10 µM, first compound 0.00316 µM) 173% | viability, T/C (second compound 10 µM, first compound 0.01 µM) 166% | viability, T/C (second compound 10 µM, first compound 0.0316 µM) 156% | viability, T/C (second compound 10 µM, first compound 0.1 µM) 146% | viability, T/C (second compound 10 µM, first compound 0.316 µM) 153% | viability, T/C (second compound 10 µM, first compound 1 µM) 136%
